Results taken from patent US7507547B2, “Screening assays for antioxidants and antiproliferative compounds” (University of Massachusetts, priority 2004, dated 2009).
pEC50, pIC50, pKd: −log10 of the molar value. “And” between values parts separate entries of the source, which are not always exact repeats. Identical values can stand only once. Like-named read-outs stand apart in the source and are kept apart here. Square brackets hold non-standard residues; d marks the D form. Peptide text beside a SMILES is read from it. * marks the point of attachment. pGlu = O=C1CC[C@@H](C(=O)O)N1; X1 = O=C(Cc1ccc(O)c(I)c1)*; Nle = CCCC[C@H](N)C(=O)O

Legend:
[1] = test system: ATP-induced IP formation in PC3 cells; conditions: maximal dose (10 μM)
NTR1 [2] = biological target: T1, NTR1 (Homo sapiens, UniProt P30989); test: ^125I-NT binding to PC3 cells; conditions: for NT Binding Assay: ability to enhance NT binding in PC3 cells; for Efficacy for altering NT binding to NTR: flavonoids
T1 construct: endogenous in cells; host or cells: PC3 cells (ATCC)

5-LOX = conditions: range of reported values, various blood cell systems; cited from earlier work
[3] = test system: NT-induced inositol phosphate (IP) formation in PC3 cells; test: NT-induced IP formation in PC3 cells; assay type: cell-based; conditions: for pIC50: Homo sapiens, PC-3; for IP Formation Efficacy (% decrease): maximal % decrease in NT-induced IP formation
bombesin receptor = biological target: T2, bombesin receptor (Homo sapiens, UniProt P30550); test: ^125I-[Nle14]-bombesin binding to PC3 cells
T2 construct: endogenous in cells; host or cells: PC3 cells (ATCC)

EGF receptor = biological target: T3, EGF receptor (Homo sapiens, UniProt P00533); test: ^125I-EGF binding to PC3 cells
T3 construct: endogenous in cells; host or cells: PC3 cells (ATCC)

β2-adrenergic receptor [4] = biological target: T4, β2-adrenergic receptor (Homo sapiens, UniProt P07550); test: ^125I-pindolol binding to PC3 cells
T4 construct: endogenous in cells; host or cells: PC3 cells (ATCC)

[5] = biological target: T5, vasopressin (V1a) receptor (Homo sapiens, UniProt P37288); test: ^125I-HOLVA binding to PC3 cells
T5 construct: endogenous in cells; host or cells: PC3 cells (ATCC)

NTR1 [6] = biological target: T1, NTR1; test: ^125I-NT binding to PC3 cell membranes; conditions: 22° C., 60 minutes
[7] = set-up: key: +: All of the compounds listed in Table 12 were anticancerous; conditions: from anticancer literature; cited from earlier work
[8] = biological target: T5, vasopressin (V1a) receptor; test: ^125I-HOLVA binding to PC3 cell membranes; conditions: 60 μM agent
NTR1 [9] = biological target: T1, NTR1; test: Cell-surface binding and internalization of ^125I-NT in PC3 cells; assay type: cell-based; conditions: 50 μM agent, 37° C., prebound at 4° C.
β2-adrenergic receptor [10] = biological target: T4, β2-adrenergic receptor; test: ^125I-pindolol binding to PC3 cell membranes; conditions: 60 μM agent
[11] = test system: IP formation in PC3 cells; test: IP formation in PC3 cells in response to ionomycin; assay type: cell-based
Protocol: Ca^2+-ionophore (ionomycin) stimulated IP formation, reproducing ≅63% of the NT response. […] When added 2 minutes after a maximal dose of NT (30 nM), low doses of ionomycin (2-10 μM) enhanced the NT response. […] In contrast, a maximal dose of ionomycin gave less than additive enhancement of the NT response.

ERK = test: NT-induced ERK activation in PC3 cells (western blot); assay type: cell-based; conditions: for pIC50: Homo sapiens, PC-3, 0.05 h, 3 minutes, 10 nM NT
Protocol: Anticancer activity was assessed using methods from Hassan et al., Regul. […] Western blotting was used to assess activation of growth pathways. In particular we measured the activation of a MAP-kinase called ERK using antibodies specific for the phosphorylated form. Serum was withdrawn for 24 hours from 80% confluent PC3 cells in 60 mm dishes. Cells were washed in Locke, then exposed for 3 minutes to 10 nM NT as stimulus. Reactions were stopped on ice, and cells were washed in buffer containing phosphatase and protease inhibitors. Cells were extracted into 2×SDS buffer, and proteins were separated by SDS-PAGE using 10% minigels. Proteins were electroeluted onto PVDF, and blots were blocked in non-fat dry milk in TTBS buffer. Blots were incubated with the primary antibody in blocking buffer for 18 hours at 4° C., washed in TTBS, then incubated with horseradish peroxidase-linked secondary antibody for 1 hour at 20° C. Enhanced chemoluminescence was performed according to manufacturer (Santa Cruz) and autoradiographs were scanned for computerized densitometric analysis. The results for the phospho-ERK were normalized by stripping the blots and reprobing with antibodies that measured the total ERK concentration.

PC3 cells = test: NT-induced proliferation of PC3 cells (^3H-thymidine); assay type: cell-based; conditions: for pIC50: Homo sapiens, PC-3, 24 hours, 10 nM NT, read-out: IC50 for inhibition of NT-induced proliferation
melanoma cell growth = conditions: Casagrande and Darbon, 2001; cited from earlier work
[12] = test system: cancers from skin, pancreas, liver and breast; conditions: Huang et al., 1999; cited from earlier work
protein kinase C = conditions: Ferriola et al., 1989; cited from earlier work
[13] = biological target: neurotensin-1 receptor (NTR1) (Homo sapiens, UniProt P30989); conditions: read-out: binding affinity; cited from earlier work
[14] = biological target: neurotensin-2 receptor (NTR2) (Homo sapiens, UniProt O95665); conditions: read-out: binding affinity; cited from earlier work
[15] = [agent] giving 100% increase in NT binding
[16] = [agent] that decreased IP formation by 40%
[17] = [agent] at which IP formation was decreased by 50%
[18] = 10^5 cpm ^125I-ligand, PC3 cells

T1 sequence (P30989 whole entry): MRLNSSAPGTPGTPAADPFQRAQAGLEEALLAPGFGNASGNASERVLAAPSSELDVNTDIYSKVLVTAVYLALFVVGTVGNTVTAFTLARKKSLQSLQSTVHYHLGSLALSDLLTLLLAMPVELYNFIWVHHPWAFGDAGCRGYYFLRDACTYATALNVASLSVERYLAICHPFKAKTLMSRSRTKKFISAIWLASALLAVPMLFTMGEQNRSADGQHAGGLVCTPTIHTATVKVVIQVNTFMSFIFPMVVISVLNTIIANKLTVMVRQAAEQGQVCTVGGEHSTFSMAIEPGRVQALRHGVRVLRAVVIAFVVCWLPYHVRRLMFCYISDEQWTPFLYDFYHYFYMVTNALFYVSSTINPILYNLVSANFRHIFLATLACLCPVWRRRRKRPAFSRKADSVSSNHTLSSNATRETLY
T2 sequence (P30550 whole entry): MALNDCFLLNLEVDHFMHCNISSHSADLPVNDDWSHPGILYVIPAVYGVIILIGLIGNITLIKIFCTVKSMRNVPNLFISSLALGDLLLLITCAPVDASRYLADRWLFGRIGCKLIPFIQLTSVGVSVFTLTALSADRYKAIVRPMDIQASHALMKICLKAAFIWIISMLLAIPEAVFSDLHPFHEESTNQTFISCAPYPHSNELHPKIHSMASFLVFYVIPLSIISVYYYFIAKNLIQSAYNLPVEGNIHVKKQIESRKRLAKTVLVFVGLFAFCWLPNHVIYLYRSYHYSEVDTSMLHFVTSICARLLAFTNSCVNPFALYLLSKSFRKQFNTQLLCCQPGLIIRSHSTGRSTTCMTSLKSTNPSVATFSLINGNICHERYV
T4 sequence (P07550 whole entry): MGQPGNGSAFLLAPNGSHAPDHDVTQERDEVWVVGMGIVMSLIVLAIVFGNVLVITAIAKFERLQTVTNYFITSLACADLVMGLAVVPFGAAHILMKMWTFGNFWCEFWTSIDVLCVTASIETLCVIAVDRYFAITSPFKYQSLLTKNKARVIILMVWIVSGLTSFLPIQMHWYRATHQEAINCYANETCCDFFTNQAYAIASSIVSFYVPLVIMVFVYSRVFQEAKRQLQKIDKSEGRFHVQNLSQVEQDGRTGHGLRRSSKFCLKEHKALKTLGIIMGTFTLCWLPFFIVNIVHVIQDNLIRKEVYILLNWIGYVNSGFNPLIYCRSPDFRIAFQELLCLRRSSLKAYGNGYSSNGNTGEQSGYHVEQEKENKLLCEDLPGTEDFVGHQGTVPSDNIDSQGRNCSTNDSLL
T3 sequence (P00533 25-1210): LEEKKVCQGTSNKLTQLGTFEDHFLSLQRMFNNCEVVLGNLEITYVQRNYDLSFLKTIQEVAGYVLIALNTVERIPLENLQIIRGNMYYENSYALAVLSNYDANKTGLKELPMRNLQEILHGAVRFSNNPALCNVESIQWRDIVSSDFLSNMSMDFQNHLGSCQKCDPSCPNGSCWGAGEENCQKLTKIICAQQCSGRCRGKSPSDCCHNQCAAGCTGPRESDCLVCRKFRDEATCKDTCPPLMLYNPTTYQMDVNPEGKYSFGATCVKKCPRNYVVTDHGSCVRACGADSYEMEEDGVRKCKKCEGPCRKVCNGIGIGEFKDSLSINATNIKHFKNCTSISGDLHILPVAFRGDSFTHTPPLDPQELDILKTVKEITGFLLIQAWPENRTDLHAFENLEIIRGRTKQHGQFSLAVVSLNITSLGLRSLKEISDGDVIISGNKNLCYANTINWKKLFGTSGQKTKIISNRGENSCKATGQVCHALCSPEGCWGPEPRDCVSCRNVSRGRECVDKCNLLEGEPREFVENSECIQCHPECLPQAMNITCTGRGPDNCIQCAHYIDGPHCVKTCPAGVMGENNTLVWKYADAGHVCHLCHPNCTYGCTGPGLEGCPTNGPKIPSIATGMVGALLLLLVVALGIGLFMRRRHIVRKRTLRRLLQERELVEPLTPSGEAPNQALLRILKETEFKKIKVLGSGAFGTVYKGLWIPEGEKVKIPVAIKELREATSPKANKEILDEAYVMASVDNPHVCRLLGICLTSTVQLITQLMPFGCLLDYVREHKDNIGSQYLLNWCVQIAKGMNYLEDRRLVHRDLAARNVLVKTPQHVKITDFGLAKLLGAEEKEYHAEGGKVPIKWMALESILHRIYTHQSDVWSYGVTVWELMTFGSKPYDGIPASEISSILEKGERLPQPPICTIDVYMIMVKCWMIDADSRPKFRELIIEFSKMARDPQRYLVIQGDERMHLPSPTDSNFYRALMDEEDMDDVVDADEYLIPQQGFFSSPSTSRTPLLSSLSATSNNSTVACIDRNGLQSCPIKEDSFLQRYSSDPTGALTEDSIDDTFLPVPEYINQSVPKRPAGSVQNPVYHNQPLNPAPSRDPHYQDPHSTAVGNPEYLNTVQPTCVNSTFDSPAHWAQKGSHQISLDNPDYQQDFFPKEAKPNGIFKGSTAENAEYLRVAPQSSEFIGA
T5 sequence (P37288 whole entry): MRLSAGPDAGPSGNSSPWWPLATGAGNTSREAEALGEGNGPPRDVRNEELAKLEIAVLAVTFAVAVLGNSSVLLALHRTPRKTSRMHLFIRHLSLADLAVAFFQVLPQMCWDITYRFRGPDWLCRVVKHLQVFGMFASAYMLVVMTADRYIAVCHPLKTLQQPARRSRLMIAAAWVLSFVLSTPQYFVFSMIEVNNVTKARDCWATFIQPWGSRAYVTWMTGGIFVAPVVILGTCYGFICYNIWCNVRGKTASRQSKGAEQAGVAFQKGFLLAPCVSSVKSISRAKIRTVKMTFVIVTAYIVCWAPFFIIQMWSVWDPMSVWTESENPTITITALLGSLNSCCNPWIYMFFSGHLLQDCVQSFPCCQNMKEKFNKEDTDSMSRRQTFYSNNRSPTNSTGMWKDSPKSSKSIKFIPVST
Sequence of neurotensin-2 receptor (NTR2) (O95665 whole entry, species assumed): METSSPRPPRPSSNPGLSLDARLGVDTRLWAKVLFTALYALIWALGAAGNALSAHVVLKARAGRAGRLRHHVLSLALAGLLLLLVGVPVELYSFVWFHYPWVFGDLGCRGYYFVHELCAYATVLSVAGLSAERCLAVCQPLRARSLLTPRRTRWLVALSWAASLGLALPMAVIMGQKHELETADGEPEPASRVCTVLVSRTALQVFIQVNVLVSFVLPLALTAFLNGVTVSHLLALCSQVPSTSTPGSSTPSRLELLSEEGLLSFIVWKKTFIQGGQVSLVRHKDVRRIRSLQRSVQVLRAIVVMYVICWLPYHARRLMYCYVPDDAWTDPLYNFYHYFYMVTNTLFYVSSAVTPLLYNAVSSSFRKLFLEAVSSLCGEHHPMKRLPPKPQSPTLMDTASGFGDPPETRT
Sequence of neurotensin-1 receptor (NTR1) (P30989 whole entry, species assumed): as the sequence (P30989 whole entry) above

## Nc1ncnc2c1ncn2[C@@H]1O[C@H](COP(=O)(O)OP(=O)(O)OP(=O)(O)O)[C@@H](O)[C@H]1O [ATP]
[1]
  Stimulation of IP formation by ATP: ~17 fold and > 15 fold

## CCNC(=O)[C@H]1O[C@@H](n2cnc3c(N)nc(NCCc4ccc(CCC(=O)O)cc4)nc32)[C@H](O)[C@@H]1O [CGS21683]
NTR1 [2]; [15]
  pEC50: 4.66
5-LOX
  pIC50: 6.00 to 8.00

## CCCCCC#CCC#CCC#CCC#CCCCC(=O)O [ETYA, 5,8,11,14-eicosatetraynoic acid]
NTR1 [2]; LOX blockers
  NT Binding Efficacy % increase: 100 % increase
NTR1 [2]; [15]
  pEC50: 4.30
[3]; [16]
  pIC50: 4.49
5-LOX
  pIC50: 4.30 to 5.22

## CC(C)c1ccc2c(c1)c(SC(C)(C)C)c(CC(C)(C)C(=O)O)n2Cc1ccc(Cl)cc1 [MK886]
NTR1 [2]; LOX blockers
  NT Binding Efficacy % increase: 210 % increase
NTR1 [2]; [15]
  pEC50: 4.74
NTR1 [2]
  NT Binding Assay: +
Bombesin receptor; 12 μM agent
  Specific Binding (% control): 106 ± 5 % control
Bombesin receptor; 60 μM agent
  Specific Binding (% control): 125 ± 7 % control
EGF receptor; 12 μM agent
  Specific Binding (% control): 141 ± 7 % control
EGF receptor; 60 μM agent
  Specific Binding (% control): 165 ± 11 % control
EGF receptor; PC3 cells
  Increase in EGF binding: 65%
β2-adrenergic receptor [4]; 12 μM agent
  Specific Binding (% control): 105 ± 3 % control
β2-adrenergic receptor [4]; 60 μM agent
  Specific Binding (% control): 102 ± 6 ^ % control
[5]; 12 μM agent
  Specific Binding (% control): 93 ± 5 % control
[5]; 60 μM agent
  Specific Binding (% control): 67 ± 3 % control
NTR1 [6]; 10 μM agent
  Specific NT-Binding (% control): 99 ± 3 % control
NTR1 [6]; 25 μM agent
  Specific NT-Binding (% control): 107 ± 4 % control
NTR1 [6]; 75 μM agent
  Specific NT-Binding (% control): 97 ± 4 % control
5-LOX
  pIC50: 6.00 to 7.00
[7]
  Anti-cancer: +

## CC(Cc1ccc(O)c(O)c1)C(C)Cc1ccc(O)c(O)c1 (stereo not drawn) [NDGA, Nordihydroguaiaretic acid]
NTR1 [2]; LOX blockers
  NT Binding Efficacy % increase: 230 % increase
NTR1 [2]; [15]
  pEC50: 4.80
NTR1 [2]
  NT Binding Assay: +
[3]; [16]
  pIC50: 5.15
5-LOX
  pIC50: 5.70 to 6.52
[7]
  Anti-cancer: +

## COC(=O)C1=C(C)NC(C)=C(C(=O)OC)C1c1ccccc1[N+](=O)[O-] [NIF, nifedipine]
[8]
  Binding (% control ± SEM): 90 ± 3 % control

## O=C(CCc1ccc(O)cc1)c1c(O)cc(O)cc1O [Phloretin]
NTR1 [2]
  pEC50: 4.57
[3]; [17]
  pIC50: 4.64
[3]
  IP Formation Efficacy (% decrease): 70 % decrease
NTR1 [9]
  Internalization rate of prebound cell-surface ^125I-NT: 8.1±0.7 %/minute

## CCCCCC(O)c1cccc(OCc2ccc3ccccc3n2)c1 (stereo not drawn) [Rev5901]
NTR1 [2]; [15]
  pEC50: 4.72
NTR1 [2]; maximal enhancement of NT binding to PC3 cells
  NT binding increased as much as / up to (fold): ≤ 2.4 fold
[3]; [16]
  pIC50: 5.10
5-LOX
  pIC50: 5.00

## COc1ccc(CCCOC(Cn2ccnc2)c2ccc(OC)cc2)cc1 (stereo not drawn) [SKF-96365]
NTR1 [2]; [agent] at which NT binding was increased by 80%
  pEC50: 4.64
NTR1 [2]; maximal % increase in NT binding observed for each agent
  NT Binding Efficacy % increase: 155 % increase
β2-adrenergic receptor [4]
  % crossreaction (direct competition with ^125I-pindolol): ~0.0005%
[3]; [17]
  pIC50: 4.59
[3]
  IP Formation Efficacy (% decrease): 69 % decrease
β2-adrenergic receptor [10]
  Binding (% control ± SEM): 18 ± 5 % control
[8]
  Binding (% control ± SEM): 110 ± 3 % control

## COc1ccc(CCN(C)CCCC(C#N)(c2ccc(OC)c(OC)c2)C(C)C)cc1OC (stereo not drawn) [Verapamil, verapamil]
β2-adrenergic receptor [4]
  % crossreaction (direct competition with ^125I-pindolol): ~0.0005%
β2-adrenergic receptor [10]
  Binding (% control ± SEM): 9 ± 2 % control
[8]
  Binding (% control ± SEM): 91 ± 5 % control

## CCOc1ccc(C[C@@H](NC(=O)Cc2ccc(O)c(I)c2)C(=O)N[C@@H](Cc2ccccc2)C(=O)N[C@@H](CCC(N)=O)C(=O)N[C@@H](CC(N)=O)C(=O)N[C@@H](CCCCN)C(=O)N2CCC[C@H]2C(=O)N[C@@H](CCCNC(=N)N)C(N)=O)cc1 [^125I-HOLVA, des-Gly-[Phaal, D-Tyr(Et)2, Lys6, Arg8]-vasopressin] (X1-[dY](Et)FQNKPR-NH2; N-terminus and C-terminus assumed)
[5]; [18]
  Specific Binding (% of total): 77 % of total
[5]; Scatchard analysis
  Bmax: 156 ± 12 fmol/mg

## CCCC[C@H](NC(=O)[C@H](CC(C)C)NC(=O)[C@H](Cc1c[nH]cn1)NC(=O)CNC(=O)[C@@H](NC(=O)[C@H](C)NC(=O)[C@H](Cc1c[nH]c2ccccc12)NC(=O)[C@H](CCC(N)=O)NC(=O)[C@H](CC(N)=O)NC(=O)CNC(=O)[C@H](Cc1ccc(O)cc1)NC(=O)[C@H](CCCNC(=N)N)NC(=O)[C@H](CCC(N)=O)NC(=O)[C@@H]1CCC(=O)N1)C(C)C)C(N)=O [^125I-[Nle^14]-bombesin] ([pGlu]QRYGNQWAVGHL[Nle]-NH2; C-terminus assumed)
Bombesin receptor; [18]
  Specific Binding (% of total): 95 % of total
Bombesin receptor; Scatchard analysis
  Bmax: 1016 ± 64 fmol/mg

## C[C@H](CCC(=O)O)C[C@H](C)C[C@H](C)C(=O)/C=C(\O)[C@H](C)C[C@H](C)C/C=C/[C@@H](C)[C@@H](O)[C@@H](C)[C@@H](O)C[C@@H]1CC[C@@](C)([C@H]2CC[C@@](C)([C@@H](C)O)O2)O1 [ionomycin]
[11]
  IP formation as share of the NT response: ~63%

## O=c1c(O)c(-c2ccc(O)c(O)c2)oc2cc(O)cc(O)c12 [quercetin]
NTR1 [2]
  NT Binding Assay: +
ERK
  pIC50: 4.60
PC3 cells
  pIC50: 6.30
[7]
  Anti-cancer: +

## Oc1ccc(C=Cc2cc(O)cc(O)c2)cc1 [resveratrol]
[3]; [agent] giving 50% decrease in IP formation
  pIC50: 4.32
ERK
  pIC50: 4.30
PC3 cells
  pIC50: 5.52

## C(=Cc1ccccc1)c1ccccc1 [stilbene]
ERK
  Effect on NT-induced ERK activation: inactive
PC3 cells
  Effect on NT-induced cell proliferation: inactive

## O=C1c2c(O)cc(O)cc2O[C@H](c2ccc(O)c(O)c2)[C@H]1O [taxifolin]
NTR1 [2]
  Efficacy for altering NT binding to NTR: inactive
ERK
  Effect on NT-induced ERK activation: inactive
PC3 cells
  Effect on NT-induced cell proliferation: inactive
Melanoma cell growth
  Efficacy to inhibit melanoma cell growth: inactive
[12]
  Efficacy to inhibit growth of cancers from skin, pancreas, liver and breast: inactive
Protein kinase C
  Efficacy to inhibit protein kinase C: inactive

## Trp 11 NT(1-13): peptide identical to NT (1-13) except for substitution of tryptophan for tyrosine at amino acid 11 (QLYENKPRRPWIL; Neurotensin; UniProt P30990 151-163, looked up, variant Y11W)
[13]
  pKd: ~9.00
[14]
  pKd: ~7.57

## catechin
NTR1 [2]
  Efficacy for altering NT binding to NTR: inactive
Melanoma cell growth
  Efficacy to inhibit melanoma cell growth: inactive
[12]
  Efficacy to inhibit growth of cancers from skin, pancreas, liver and breast: inactive
Protein kinase C
  Efficacy to inhibit protein kinase C: inactive
